Structures are written as SMILES.

This experiment addresses ADAMTS4 (Homo sapiens (Human), UniProt O75173). Kind of experiment: Selectivity assay for ADAMTS-7 modulators: ADAMTS4 (FRET substrate). In kind it is biochemical. The note with it: ADAMTS4 (R&D 4307-AD) 50 nM, 120 min, 32° C. Put shortly:
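Human ADAMTS4 with compound in DMSO, or DMSO control; reaction started by adding FRET substrate in reaction buffer. Fluorescence increase measured at substrate-specific wavelengths. IC50 derived from % inhibition of enzyme activity versus compound concentration.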

The mark [1] stands for this setting: substrate Dabcyl-EEVKAKVQPY-Glu(Edans)-NH2 1 μM.

ADAMTS4, sequence (O75173 213-685): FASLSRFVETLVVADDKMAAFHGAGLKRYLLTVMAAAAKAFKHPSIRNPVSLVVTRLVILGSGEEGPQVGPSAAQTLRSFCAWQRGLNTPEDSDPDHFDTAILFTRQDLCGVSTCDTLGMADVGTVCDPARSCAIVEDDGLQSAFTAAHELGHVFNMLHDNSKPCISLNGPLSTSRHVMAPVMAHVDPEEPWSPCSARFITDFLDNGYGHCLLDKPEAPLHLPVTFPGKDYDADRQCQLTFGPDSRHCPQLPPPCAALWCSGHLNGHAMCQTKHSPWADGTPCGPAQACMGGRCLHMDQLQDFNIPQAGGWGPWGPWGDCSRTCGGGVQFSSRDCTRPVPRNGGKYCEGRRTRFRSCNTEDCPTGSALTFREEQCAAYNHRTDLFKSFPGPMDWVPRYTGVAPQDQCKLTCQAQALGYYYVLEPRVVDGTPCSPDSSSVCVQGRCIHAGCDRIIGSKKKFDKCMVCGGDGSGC

The term IC50 denotes the point on the concentration scale where inhibition reaches its midpoint. Compound `Cn1nccc1C1(CNC(=O)c2ccc(F)c(F)c2-c2ccc(C(F)(F)F)cc2)NC(=O)NC1=O` (single isomer, unassigned; ent-5) [Example 191, Ent-5,6-Difluoro-N-{[4-(1-Methyl-1H-Pyrazol-5-Yl)-2,5-Dioxoimidazolidin-4-Yl]Methyl}-4′-(Trifluoromethyl)[Biphenyl]-2-Carboxamide] showed an IC50 under setting [1] of 6.48 µM.
Same read-out and setting: next, `O=C1NC(=O)C(CNC(=O)c2ccccc2-c2ccc(C(F)(F)F)cc2)(C2CCC2)N1` (stereo not drawn) [Example 237, Ent-N-[(4-Cyclobutyl-2,5-Dioxoimidazolidin-4-Yl)Methyl]-4′-(Trifluoromethyl)[Biphenyl]-2-Carboxamide]: above 50 µM; `Cc1ccc(C(=O)NCC2(c3scnc3C)NC(=O)NC2=O)c(-c2ccc(C(F)(F)F)cc2)c1` (single isomer, unassigned; ent-5) [Example 8, Ent-5-Methyl-N-{[4-(4-Methyl-1,3-Thiazol-5-Yl)-2,5-Dioxoimidazolidin-4-Yl]Methyl}-4′-(Trifluoromethyl)[Biphenyl]-2-Carboxamide]: 3.8 µM; `O=C1NC(=O)[C@](CNC(=O)c2ccccc2-c2ccc(C(F)(F)F)cn2)(C2CC2)N1` [Example 84, N-{[(4R)-4-Cyclopropyl-2,5-Dioxoimidazolidin-4-Yl]Methyl}-2-[5-(Trifluoromethyl)Pyridin-2-Yl]Benzamide]: 50 µM.
On the same count and under the same terms, next, `Cc1nc(C)c(C2(CNC(=O)c3ccccc3-c3ccc(C(F)(F)F)cc3)NC(=O)NC2=O)s1` (stereo not drawn) [Example 47, Ent-N-{[4-(2,4-Dimethyl-1,3-Thiazol-5-Yl)-2,5-Dioxoimidazolidin-4-Yl]Methyl}-4′-(Trifluoromethyl)[Biphenyl]-2-Carboxamide]: 4.15 µM; `Cn1nccc1C1(CNC(=O)c2ccc(Cl)cc2-c2ccc(C(F)(F)F)nc2)NC(=O)NC1=O` (single isomer, unassigned; ent-4) [Example 289, Ent-4-Chloro-N-{[4-(1-Methyl-1H-Pyrazol-5-Yl)-2,5-Dioxoimidazolidin-4-Yl]Methyl}-2-[6-(Trifluoromethyl)Pyridin-3-Yl]Benzamide]: 6.3 µM; `O=C1NC(=O)[C@](CNC(=O)c2ccccc2-c2ccc(OC(F)(F)F)cc2)(C2CC2)N1` [Example 21, N-{[(4R)-4-Cyclopropyl-2,5-Dioxoimidazolidin-4-Yl]Methyl}-4′-(Trifluoromethoxy)[Biphenyl]-2-Carboxamide]: above 50 µM.
In turn, `O=C1NC(=O)C(CNC(=O)c2ccc(F)cc2-c2ccc(C(F)(F)F)cc2)(c2ncsc2C(F)(F)F)N1` (stereo not drawn) [Example 268, Ent-N-({2,5-Dioxo-4-[5-(Trifluoromethyl)-1,3-Thiazol-4-Yl]Imidazolidin-4-Yl}Methyl)-5-Fluoro-4′-(Trifluoromethyl)[Biphenyl]-2-Carboxamide] yielded a concentration for half-maximal inhibition (IC50) under setting [1] of 27 µM.
The same measure, in the same setting: next, `O=C1NC(=O)[C@](CNC(=O)c2c(F)cccc2-c2ccc(C(F)(F)F)cc2)(C2CC2)N1` [Example 230, N-{[(4R)-4-Cyclopropyl-2,5-Dioxoimidazolidin-4-Yl]Methyl}-3-Fluoro-4′-(Trifluoromethyl)[1,1′-Biphenyl]-2-Carboxamide]: 33 µM; `Cc1ccc(-c2ccccc2C(=O)NCC2(c3ccccn3)NC(=O)NC2=O)cc1` (racemic) [Example 164, Rac-N-{[2,5-Dioxo-4-(Pyridin-2-Yl)Imidazolidin-4-Yl]Methyl}-4′-Methyl[Biphenyl]-2-Carboxamide]: 14 µM.
Turning to `O=C1NC(=O)C(CNC(=O)c2ccccc2-c2ccc(C(F)(F)F)cc2)(c2ccnn2C(F)F)N1` (racemic) [Example 260, Rac-N-({4-[1-(Difluoromethyl)-1H-Pyrazol-5-Yl]-2,5-Dioxoimidazolidin-4-Yl}Methyl)-4′-(Trifluoromethyl)[Biphenyl]-2-Carboxamide], the half-maximal inhibitory concentration (IC50) under setting [1] was found to be 17 µM.
Same read-out and setting: as for `O=C1NC(=O)[C@](CNC(=O)c2ccccc2-c2ccc(F)cc2)(C2CC2)N1` [Example 129, N-{[(4R)-4-Cyclopropyl-2,5-Dioxoimidazolidin-4-Yl]Methyl}-4′-Fluoro[Biphenyl]-2-Carboxamide], the figure is 8.7 µM; as for `O=C1NC(=O)C(CNC(=O)c2ccc(F)cc2-c2ccc(C(F)(F)F)cc2)(C23CC(F)(C2)C3)N1` (racemic) [Example 293, Rac-5-Fluoro-N-{[4-(3-Fluorobicyclo[1.1.1]Pentan-1-Yl)-2,5-Dioxoimidazolidin-4-Yl]Methyl}-4′-(Trifluoromethyl)[Biphenyl]-2-Carboxamide], above 50 µM.
The same measure, in the same setting: next, `O=C1NC(=O)C(CNC(=O)c2ccccc2-c2ccc(Cl)cc2)(c2ccnn2C(F)F)N1` (racemic) [Example 258, Rac-4′-Chloro-N-({4-[1-(Difluoromethyl)-1H-Pyrazol-5-Yl]-2,5-Dioxoimidazolidin-4-Yl}Methyl)[Biphenyl]-2-Carboxamide]: 12 µM; `O=C1NC(=O)C(CNC(=O)c2cccc(F)c2-c2ccc(C(F)(F)F)cc2)(C2(F)CC2)N1` (racemic) [Example 299, Rac-6-Fluoro-N-{[4-(1-Fluorocyclopropyl)-2,5-Dioxoimidazolidin-4-Yl]Methyl}-4′-(Trifluoromethyl)[Biphenyl]-2-Carboxamide]: 19 µM; `O=C1NC(=O)[C@](CNC(=O)c2ccccc2-c2ccc(Cl)cc2)(C2CC2)N1` [Example 220, 4′-Chloro-N-{[(4R)-4-Cyclopropyl-2,5-Dioxoimidazolidin-4-Yl]Methyl}[1,1′-Biphenyl]-2-Carboxamide]: 7.8 µM.
As for `Cc1cn(C)nc1C1(CNC(=O)c2ccccc2-c2ccc(C(F)(F)F)cc2)NC(=O)NC1=O` (stereo not drawn) [Example 70, Ent-N-{[4-(1,4-Dimethyl-1H-Pyrazol-3-Yl)-2,5-Dioxoimidazolidin-4-Yl]Methyl}-4′-(Trifluoromethyl)[Biphenyl]-2-Carboxamide], the concentration for half-maximal inhibition (IC50) under setting [1] was found to be 4.5 µM.
Same read-out and setting: next, `O=C1NC(=O)C(CNC(=O)c2ccccc2-c2ccc(C(F)(F)F)cc2)(C2(F)CC2)N1` (racemic) [Example 254, Rac-N-{[4-(1-Fluorocyclopropyl)-2,5-Dioxoimidazolidin-4-Yl]Methyl}-4′-(Trifluoromethyl)[Biphenyl]-2-Carboxamide]: 26 µM; `Cn1ccnc1C1(CNC(=O)c2ccc(Cl)cc2-c2ccc(Cl)cc2)NC(=O)NC1=O` (single isomer, unassigned; ent-4) [Example 162, Ent-4′,5-Dichloro-N-{[4-(1-Methyl-1H-Imidazol-2-Yl)-2,5-Dioxoimidazolidin-4-Yl]Methyl}[Biphenyl]-2-Carboxamide]: 0.463 µM.
For the setting “substrate Dabcyl-[…]-Glu(Edans)-NH2 1 μM”, `Cc1scnc1C1(CNC(=O)c2ccc(F)cc2-c2ccc(C(F)(F)F)cc2)NC(=O)NC1=O` (single isomer, unassigned; ent-5) [Example 176, Ent-5-Fluoro-N-{[4-(5-Methyl-1,3-Thiazol-4-Yl)-2,5-Dioxoimidazolidin-4-Yl]Methyl}-4′-(Trifluoromethyl)[Biphenyl]-2-Carboxamide] yielded a concentration for half-maximal inhibition (IC50) of 4.13 µM.
For `O=C1NC(=O)[C@](CNC(=O)c2ccc(F)c(F)c2-c2ccc(C(F)(F)F)nc2)(C2CC2)N1` [Example 76, N-{[(4R)-4-Cyclopropyl-2,5-Dioxoimidazolidin-4-Yl]Methyl}-3,4-Difluoro-2-[6-(Trifluoromethyl)Pyridin-3-Yl]Benzamide], half-maximal inhibition under setting [1] (IC50) required 14 µM.
Under setting [1], `Cc1scnc1C1(CNC(=O)c2ccccc2-c2ccc(C(F)(F)F)cc2)NC(=O)NC1=O` (single isomer, unassigned) [Example 2, Ent-N-{[4-(5-Methyl-1,3-Thiazol-4-Yl)-2,5-Dioxoimidazolidin-4-Yl]Methyl}-4′-(Trifluoromethyl)[Biphenyl]-2-Carboxamide] showed a half-maximal inhibitory concentration (IC50) above 50 µM.
Regarding `O=C1NC(=O)[C@](CNC(=O)c2ccncc2-c2ccc(Cl)cc2)(C2CC2)N1` [Example 56, 3-(4-Chlorophenyl)-N-{[(4R)-4-Cyclopropyl-2,5-Dioxoimidazolidin-4-Yl]Methyl}Isonicotinamide], under setting [1], the IC50 is 31 µM.
For `O=C1NC(=O)[C@](CNC(=O)c2cccnc2-c2ccc(C(F)(F)F)cc2)(C2CC2)N1` [Example 82, N-{[(4R)-4-Cyclopropyl-2,5-Dioxoimidazolidin-4-Yl]Methyl}-2-[4-(Trifluoromethyl)Phenyl]Pyridine-3-Carboxamide], the half-maximal inhibitory concentration (IC50) under setting [1] is above 50 µM.
On the same count and under the same terms, as for `Cn1ccnc1C1(CNC(=O)c2cc(F)ccc2-c2ccc(C3CC3(F)F)cc2)NC(=O)NC1=O` (centres unmarked) [Example 139, 4′-(2,2-Difluorocyclopropyl)-4-Fluoro-N-{[4-(1-Methyl-1H-Imidazol-2-Yl)-2,5-Dioxoimidazolidin-4-Yl]Methyl}[1,1′-Biphenyl]-2-Carboxamide], the figure is 2.1 µM.
Still for that read-out and setting: next, `O=C1NC(=O)C(CNC(=O)c2ccccc2-c2ccc(C(F)(F)F)cc2)(C2CCCC2)N1` (racemic) [Example 48, Rac-N-[(4-Cyclopentyl-2,5-Dioxoimidazolidin-4-Yl)Methyl]-4′-(Trifluoromethyl)[Biphenyl]-2-Carboxamide]: above 50 µM; `Cc1nscc1C1(CNC(=O)c2ccccc2-c2ccc(C(F)(F)F)cc2)NC(=O)NC1=O` (stereo not drawn) [Example 86, Ent-N-{[4-(3-Methyl-1,2-Thiazol-4-Yl)-2,5-Dioxoimidazolidin-4-Yl]Methyl}-4′-(Trifluoromethyl)[Biphenyl]-2-Carboxamide]: 7.6 µM; `O=C1NC(=O)[C@](CNC(=O)c2ccc(F)c(F)c2-c2ccc(C(F)(F)F)cc2)(C2CC2)N1` [Example 23, N-{[(4R)-4-Cyclopropyl-2,5-Dioxoimidazolidin-4-Yl]Methyl}-5,6-Difluoro-4′-(Trifluoromethyl)[Biphenyl]-2-Carboxamide]: 12.5 µM.
Same read-out and setting: as for `O=C1NC(=O)C(CNC(=O)c2ccccc2-c2ccc(C(F)(F)F)nc2)(c2ncsc2C2CC2)N1` (stereo not drawn) [Example 274, Ent-N-{[4-(5-Cyclopropyl-1,3-Thiazol-4-Yl)-2,5-Dioxoimidazolidin-4-Yl]Methyl}-2-[6-(Trifluoromethyl)Pyridin-3-Yl]Benzamide], the figure is 3.8 µM.

These data come from US12398120B2, “Substituted hydantoinamides as ADAMTS7 antagonists” (BAYER AKTIENGESELLSCHAFT, priority 2019, dated 2025).
